# According to patent US8080654B2, “Macrocyclic quinoxaline compounds as HCV NS3 protease inhibitors” (Insituto di Ricerche di Biologia Molecolare P. Angeletti SpA, priority 2008, dated 2011):
# “Also recorded” adds a separate entry of the source. Read-outs that look alike come from different tables or passages of the source.
# Key:
# [1] = Rat pharmacokinetics per os (plasma AUC, liver concentration)
# Description: (§1) Plasma samples were collected at time points between 2 minutes and 24 h, and compound levels were determined by RP-HPLC. Liver samples were collected post mortem in rat and following anesthesia (0.5 h prior to biopsy) in dog. Liver samples were weighed, homogenized, and diluted using techniques known to those skilled in the art, and compound levels were determined by RP-HPLC.
# (§2) Pharmacokinetic parameters were calculated based on non-compartmental analysis (e.g., using WATSON®, WINNOLIN®). Predose concentrations that were below the limit of quantitation (BLQ) were assigned a value of 0. […] AUC values were calculated using linear trapezoidal method for ascending concentrations and the log trapezoidal method for descending concentrations.
# [2] = Dog pharmacokinetics per os (plasma AUC, liver concentration)
# Description: as §1, §2
# [3] = In vivo covalent protein binding of 3H-labelled compound; conditions: Rat @ 6 h, 20 mg/kg oral
# Description: In-Vivo Covalent Binding^4: […] Plasma and liver were collected and flash frozen/stored at −80° C. before analysis. Counting of the plasma samples: Place a 200 μL aliquot in a 20 mL scintillation vial. Add 500 μL of SOLVABLE™ and incubate at 1 h with shaking at 55° C. Remove, allow to cool prior to the addition of 15 mL scintillation cocktail, and count. […] Tissue homogenization: […] Counting of the liver homogenate: Aliquots were placed in a 20 mL scintillation vial, diluted with 1 mL of SOLVABLE™ and incubated for 1 h with shaking at 55° C. After removal from the incubator and cooling 15 mL scintillation cocktail and 30% H2O2 were added and the radioactivity counted. Protein precipitation: […] Protein precipitate resuspension: Sonication (minimal intensity, <5 sec) and vortexing until the pellet crumbles in 80% MeOH:20% water. Wash of the protein pellet: 2-5 mL 80:20 MeOH:water. If needed, remove 1.0 mL of the supernatant, add 15 mL of scintillation cocktail and count. Continue to wash the protein pellet until radioactivity in supernatant is <200 DPM or DPMs cease to decrease by more than 200 in consecutive washes. Dissolution of the final pellet: 1 mL of 1 N NaOH or Solvable™, incubated at 50° C. overnight or until completely dissolved. Counting of the final pellet: 1 mL of dissolved pellet, 15 mL scintillation cocktail (if another scintillation cocktail other than ULTIMA GOLD™ is used, pellet may require neutralization using 1 N HCl), and count. Protein concentration of the final pellet: BCA or BIO-RAD kit using BSA as a standard. Counting blank samples: 15 mL scintillation cocktail, in duplicate. Counting of the dosing solution: count a known volume of the dosing solution in triplicate. Data Analysis: Average the radioactivity counts (DPM) of the dosing solution and calculate the specific activity of the dosing solution in μCi/mol. Average the radioactivity counts of the blank samples. Subtract the counts of the averaged blank sample from the counts obtained from each liver and plasma pellet. Calculate the amount of radioactivity (μCi) per unit volume (L) for each liver and plasma pellet. Calculate the concentration of radioactivity in each plasma and liver pellet by dividing the value obtained above (μCi/L) by the specific activity (μCi/mol). Calculate the amount of covalently bound radioactivity to protein in pmol/mg protein.
# [4] = Physical properties: equilibrium solubility and salt disproportionation (XRPD, NMR); format: physicochemical
# Description: After centrifuging, the supernatant was analyzed by reversed-phase HPLC and the equilibrium solubility determined by comparison with a calibration curve. The solid material was in part transferred onto an XRPD plate, dried and then analyzed by X-Ray Powder Diffraction. The XRPD pattern was compared with positive controls for crystalline K+ salt, crystalline zwitterionic (or acidic) and amorphous forms of the test compound.
# NS 3/4A 1b = NS 3/4A 1b (Hepatitis C virus genotype 1b, UniProt P26663); test: biochemical; conditions: genotype 1b enzyme; read-out: NS 3/4A Inhibitory Activity (Ki) lb
# Sequence of NS 3/4A 1b (P26663 1027-1657): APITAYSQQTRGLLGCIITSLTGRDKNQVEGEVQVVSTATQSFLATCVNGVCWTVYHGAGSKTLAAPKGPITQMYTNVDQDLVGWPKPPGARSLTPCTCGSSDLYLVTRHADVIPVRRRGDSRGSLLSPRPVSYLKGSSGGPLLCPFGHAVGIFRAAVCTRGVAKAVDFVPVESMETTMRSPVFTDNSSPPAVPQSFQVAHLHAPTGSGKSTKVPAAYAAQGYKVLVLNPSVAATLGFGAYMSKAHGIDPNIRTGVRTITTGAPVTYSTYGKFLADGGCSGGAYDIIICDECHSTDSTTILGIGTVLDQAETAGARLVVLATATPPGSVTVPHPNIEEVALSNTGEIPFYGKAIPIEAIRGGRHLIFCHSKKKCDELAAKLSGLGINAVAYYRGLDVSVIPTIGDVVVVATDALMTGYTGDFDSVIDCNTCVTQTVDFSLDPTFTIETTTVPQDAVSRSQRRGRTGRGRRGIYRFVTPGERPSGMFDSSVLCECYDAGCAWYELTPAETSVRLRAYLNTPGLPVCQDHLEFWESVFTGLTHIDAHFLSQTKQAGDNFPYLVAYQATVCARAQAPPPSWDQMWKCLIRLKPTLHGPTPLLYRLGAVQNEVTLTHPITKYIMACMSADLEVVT
# Sequence of NS 3/4A 1b (P26663 1658-1711): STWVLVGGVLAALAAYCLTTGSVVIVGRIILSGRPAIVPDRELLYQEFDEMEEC
# Description: A NS3 protease assay can be performed, for example, in a final volume of 100 μl assay buffer containing 50 mM HEPES, pH 7.5, 150 mM NaCl, 15% glycerol, 0.15% TRITON X-100, 10 mM DTT, and 0.1% PEG 8000. NS3 and NS4A protease is pre-incubated with various concentrations of inhibitors in DMSO for 30 minutes. The reaction is initiated by adding the TRF peptide substrate (final concentration 100 nM). NS3 mediated hydrolysis of the substrate is quenched after 1 hour at room temperature with 100 μl of 500 mM MES, pH 5.5. […] IC50 values are derived using a standard four-parameter fit to the data. […] See P. Gallinari et al., 38 BIOCHEM. […] BIOCHEM. […] V. General Compound Production
# NS 3/4A Inhibitory Activity^1 (Ki): NS 3/4A Inhibitory Activity was determined as described in Section IV.
# HCV replicon gt1b = test: HCV replicon activity, genotype 1b; format: cell-based; conditions: Hepatitis C virus; genotype 1b replicon; 50% viral replication suppression; read-out: Replicon Activity EC50 gtlb
SMILES,Rat Liver Concentration @ 24 h (25 mpk per os) ([1]; 25 mpk per os) [µM],Dog Liver Concentration @ 24 h (5mpk per os) ([2]; 5 mpk per os) [µM],"Covalent Protein Binding In Vivo, liver ([3]; LOQ = 3 pmol/mg)","Covalent Protein Binding In Vivo, liver [3]","Covalent Protein Binding In Vivo, plasma [3]",further results
"C=C[C@@H]1C[C@]1(NC(=O)[C@@H]1C[C@@H]2CN1C(=O)[C@H](C(C)(C)C)NC(=O)O[C@@H]1C[C@H]1CCCCCc1nc3ccc(OC)cc3nc1O2)C(=O)[N-]S(=O)(=O)C1CC1.[K+] [Example 1, Potassium {[(1R,2S)-1-({[(1aR,5S,8S,10R,22aR)-5-tert-butyl-14-methoxy-3,6-dioxo-1,1a,3,4,5,6,9,10,18,19,20,21,22,22a-tetradecahydro-8H-7,10-methanocyclopropa[18,19][1,10,3,6]dioxadiazacyclononadecino[11,12-b]quinoxalin-8-yl]carbonyl}amino)-2-vinylcyclopropyl]carbonyl}(cyclopropylsulfonyl)azanide]",27.9,120,liver = LOQ,,,"Rat Plasma AUC @ 25mpk per os ([1]; 25 mpk per os, plasma): 20.6 µM·h; Dog Plasma AUC @ 5mpk per os ([2]; 5 mpk per os, plasma): 48.6 µM·h; Covalent Protein Binding In Vivo, plasma ([3]; LOQ = 3 pmol/mg, 20 mg/kg): undetectable binding; also recorded: plasma = LOQ,; solubility at 24 h ([4]; thermodynamic from solid; K+ salt form, water; read-out: Aqueous solubility of K+ salt form): 1800 µg/mL"
C=C[C@@H]1C[C@]1(NC(=O)[C@@H]1C[C@@H]2CN1C(=O)[C@H](C1CCCC1)NC(=O)O[C@@H]1CCC[C@H]1CCCCCc1nc3ccccc3cc1O2)C(=O)NS(=O)(=O)C1CC1 [WO 2008/057209 Example 96],,,,liver = 63 pmol eq./mg,plasma = 6 pmol eq./mg,
C=C[C@@H]1C[C@]1(NC(=O)[C@@H]1C[C@@H]2CN1C(=O)[C@H](C(C)(C)C)NC(=O)O[C@@H]1CCC[C@H]1CCCCCc1nc3ccc(OC)cc3cc1O2)C(=O)NS(=O)(=O)C1CC1 [WO 2008/057209 Example 103],,,,liver = 24 pmol eq./mg,plasma = 6 pmol eq./mg,
C=C[C@@H]1C[C@]1(NC(=O)[C@@H]1C[C@@H]2CN1C(=O)[C@H](C1CCCC1)NC(=O)O[C@@H]1CCC[C@H]1CCCCCc1nc3ccccc3nc1O2)C(=O)NS(=O)(=O)C1CC1 [WO 2008/057209 Example 108],,,,liver = 38 pmol eq./mg,plasma = 15 pmol eq./mg,
C=C[C@@H]1C[C@]1(NC(=O)[C@@H]1C[C@@H]2CN1C(=O)[C@H](C(C)(C)C)NC(=O)O[C@@H]1C[C@H]1CCCCCc1nc3ccc(OC)cc3cc1O2)C(=O)NS(=O)(=O)C1CC1 [WO 2008/057209 Example 110],8.5,3.3,liver = BLQ,,,"Ki (NS 3/4A 1b): < 0.016 nM; EC50 (HCV replicon gt1b): 5 nM; AUC ([1]; plasma, po, 25 mg/kg): 5.8 µM·h; AUC ([2]; plasma, po, 5 mg/kg): 1 µM·h; Covalent Protein Binding In Vivo, plasma ([3]; LOQ = 3 pmol/mg): plasma = BLQ,; solubility at 24 h ([4]; water, thermodynamic from solid, K+ salt form, read-out: Aqueous solubility of K+ salt form): 9700 µg/mL; solubility at 24 h ([4]; water, thermodynamic from solid, crystalline zwitterionic form from disproportionation of the K+ salt, read-out: Aqueous solubility of crystalline zwitterionic form): < 9 µg/mL"
